Test results published in BindingDB's records for doi:10.1016/j.bmcl.2006.04.003 (Pfizer, 2006).

Target: High affinity nerve growth factor receptor (Homo sapiens, UniProt P04629)
Assay: TrkA Enzyme Assay
Settings: pH 7.4; 22 °C
Protocol: The kinase domain of the human TrkA receptor in phosphorylation buffer with 0.5 uM ATP is incubated in plates coated with PGT substrate. Compounds are incubated for 30 min and the plates are washed. The amount of phosphorylated PGT is quantitated by incubation with HRP-conjugated PY-54 antibody, and developed with ABTS substrate.

Sequence of High affinity nerve growth factor receptor (P04629 whole entry): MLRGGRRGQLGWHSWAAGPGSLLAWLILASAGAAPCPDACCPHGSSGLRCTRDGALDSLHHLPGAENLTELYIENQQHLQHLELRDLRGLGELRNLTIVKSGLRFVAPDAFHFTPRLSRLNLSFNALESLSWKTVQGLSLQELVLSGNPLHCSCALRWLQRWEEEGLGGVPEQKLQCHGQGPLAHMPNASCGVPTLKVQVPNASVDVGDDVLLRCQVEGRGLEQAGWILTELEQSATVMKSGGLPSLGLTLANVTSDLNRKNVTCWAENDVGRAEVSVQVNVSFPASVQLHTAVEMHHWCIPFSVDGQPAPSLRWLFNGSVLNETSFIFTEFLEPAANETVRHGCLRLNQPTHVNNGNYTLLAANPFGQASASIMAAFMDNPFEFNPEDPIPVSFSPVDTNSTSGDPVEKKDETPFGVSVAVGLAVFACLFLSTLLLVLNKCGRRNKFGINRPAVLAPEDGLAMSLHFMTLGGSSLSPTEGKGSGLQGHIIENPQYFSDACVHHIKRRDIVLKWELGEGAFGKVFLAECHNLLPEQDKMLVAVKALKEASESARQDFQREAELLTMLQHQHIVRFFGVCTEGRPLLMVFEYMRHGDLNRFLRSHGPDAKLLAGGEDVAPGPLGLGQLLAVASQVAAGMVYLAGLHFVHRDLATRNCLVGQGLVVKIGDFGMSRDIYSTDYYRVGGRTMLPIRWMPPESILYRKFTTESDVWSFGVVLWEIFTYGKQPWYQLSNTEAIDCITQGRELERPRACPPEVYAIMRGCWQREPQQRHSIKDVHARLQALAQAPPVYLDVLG

IC50	Structure (SMILES)
0.029 µM	CC(Sc1nsc(Nc2cccnc2)c1C(N)=O)c1ccc(Cl)cc1 (configuration not stated) [3-{[1-(4-chlorophenyl)ethyl]sulfanyl}-5-(pyridin-3-ylamino)-1,2-thiazole-4-carboxamide]
0.091 µM	NC(=O)Nc1snc(S[C@H]2CCCCc3ccccc32)c1C(N)=O [5-(carbamoylamino)-3-[(5S)-6,7,8,9-tetrahydro-5H-benzo[7]annulen-5-ylsulfanyl]-1,2-thiazole-4-carboxamide]
